Assay results as given in patent EP0336356A2, “Derivatives of tryptophan as CCK antagonists” (ABBOTT LABORATORIES, priority 1988, dated 1989).

How the values were obtained:
[1] = biological target: T1, CCK receptors (Cavia porcellus, UniProt H0VZC5); assay: [125I]BH-CCK8 radioligand binding, guinea pig cerebral cortical membranes; conditions: 30°C for 150 min, read-out: IC₅₀ (nM) [¹²⁵I]-BH-CCK₈ Cortex
T1 construct: cortex and pancreas were removed and rinsed with ice-cold saline; from tissue; host or cells: guinea pig cerebral cortex membranes
T1 sequence (H0VZC5 1-426): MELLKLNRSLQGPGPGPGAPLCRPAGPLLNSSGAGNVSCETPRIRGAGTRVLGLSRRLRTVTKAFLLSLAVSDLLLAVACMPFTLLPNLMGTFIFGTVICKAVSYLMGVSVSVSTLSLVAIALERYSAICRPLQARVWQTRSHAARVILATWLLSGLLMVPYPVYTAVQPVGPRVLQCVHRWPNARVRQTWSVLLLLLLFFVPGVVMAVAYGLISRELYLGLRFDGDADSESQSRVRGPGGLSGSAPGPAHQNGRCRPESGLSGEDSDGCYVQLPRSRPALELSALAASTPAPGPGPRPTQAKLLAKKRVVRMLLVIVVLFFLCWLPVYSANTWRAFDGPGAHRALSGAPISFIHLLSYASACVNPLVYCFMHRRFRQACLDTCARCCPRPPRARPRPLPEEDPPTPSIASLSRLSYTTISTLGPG

[2] = biological target: T2, CCK receptors (Cavia porcellus, UniProt Q63931); assay: [125I]BH-CCK8 radioligand binding, guinea pig pancreatic membranes; conditions: 37°C for 30 min, read-out: IC₅₀ (nM) [¹²⁵I]-BH-CCK₈ Pancreas
T2 construct: cortex and pancreas were removed and rinsed with ice-cold saline; from tissue; host or cells: guinea pig pancreas membranes
T2 sequence (Q63931 1-430): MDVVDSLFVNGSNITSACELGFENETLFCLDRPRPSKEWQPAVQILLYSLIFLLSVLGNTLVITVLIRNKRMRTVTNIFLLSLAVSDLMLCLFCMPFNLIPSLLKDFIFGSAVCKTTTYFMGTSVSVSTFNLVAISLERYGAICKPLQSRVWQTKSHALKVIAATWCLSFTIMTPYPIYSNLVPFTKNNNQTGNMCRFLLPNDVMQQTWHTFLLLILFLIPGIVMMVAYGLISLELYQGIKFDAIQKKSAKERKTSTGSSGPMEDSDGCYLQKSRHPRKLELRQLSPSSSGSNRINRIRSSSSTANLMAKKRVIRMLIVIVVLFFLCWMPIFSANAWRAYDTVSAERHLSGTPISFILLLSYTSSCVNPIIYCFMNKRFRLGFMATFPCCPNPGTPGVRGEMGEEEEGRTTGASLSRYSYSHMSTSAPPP

[3] = biological target: T2, CCK receptors; assay: Inhibition of CCK8-stimulated amylase release from guinea pig pancreatic acini; assay type: cell-based; conditions: reference concentration for CCK₈ 3x10⁻¹⁰M, 37°C, 30 min, read-out: IC₅₀ (nM) Inhibition of Amylase Release
Method: This assay was performed using the modified protocol of Lin et al., J. Pharmacol Exp. Ther. 236, 729-734, 1986. Guinea pig acini were prepared by the method of Bruzzone et al. (Biochem. J. 226, 621-624, 1985) as follows. Pancreas was dissected out and connective tissues and blood vessels were removed. […] The composition of the KRH buffer was: HEPES, 12.5 mM: NaCl, 118 mM; […] CaCl₂, 1 mM; KH₂PO₄, 1.2 mM; MgSO₄, 1.2 mM; NaHCO₃, 5 mM; glucose, 10 mM, pH 7.4. The buffer was supplemented with 1% MEM vitamins, 1% MEM amino acids and 0.001% aprotinin. The tube was shaken by hand until the suspension appeared homogeneous, usually 5 to 6 min. 5 mL of the KRH, without collagenase and with 0.1% BSA, were added and the tube was centrifuged at 50 x g for 35 sec. The supernatant was discarded and 6 mL of the KRH were added to the cell pellet. […] This wash procedure was repeated once. The cell pellet from the last centrifugation step was then resuspended in 15 mL of KRH containing 0.1% BSA. The contents were filtered through a dual nylon mesh, size 275 and 75 um. The filtrate, containing the acini, were centrifuged at 50 x g for 3 min. The acini were then resuspended in 5 mL of KRH-BSA buffer for 30 min at 37°C, under 100% O₂, with a change of fresh buffer at 15 min. After the 30 min incubation time, the acini were resuspended in 100 volumes of KRH-BSA buffer, containing 3 uM phosphoramidon and 100 µM bestatin. […] The final assay volume was 500 uL. Tubes were vortexed and placed in a 37°C waterbath, under 100% O₂, for 30 min. Afterward, tubes were centrifuged at 10,000 g for 1 min. Amylase activity in the supernatant and the cell pellet were separately determined after appropriate dilutions in 0.1% Triton X-100, 10 mM NaH₂PO₄, pH 7.4 by Abbott Amylase A-gent test using the Abbott Bichromatic Analyzer 200. […]

[4] = system: CCK receptors; assay: Antagonism of CCK mediated behavioral effect in mice (reversal of CCK-induced inactivity); assay type: in vivo; conditions: minimally effective dose, ICV, coadministered with CCK₈ 3 nmol, male Swiss CD-1 mice, statistically significant reversal of CCK-induced inactivity
Source text: Male Swiss CD-1 mice (Charles River) (22-27 g) were provided with ample food (Purina Lab (show) and water until the time of their injection with the test compound.
ICV injections were given by a free-hand method similar to that previously described (Haley, and McCormick, Br. J. Pharmacol. Chemother. 12 12-15 (1957)). The animals were placed on a slightly elevated metal grid and restrained by the thumb and forefinger at the level of the shoulders, thus immobilizing their heads. Injections were made with a 30 gauge needle with a "stop" consisting of a piece of tygon tubing to limit penetration of the needle to about 4.5 mm below the surface of the skin. The needle was inserted perpendicular to the skull at a midline point equidistant from thje eye and an equal distance posterior from the level of the eyes such that the injection site and the two eyes form an equilateral triangle. The injection volme (5 ul) was expelled smoothly over a period of approximately 1 second. […]
For the behavioral observations, the mice were placed in clear plastic cages. Each cage measured 19 x 26 x 15 centimeters and contained a 60-tube polypropylene test tube rack (NALGENE #5970-0020) placed on end in the center of the cage to enhance exploratory activity. […] Differences among groups were analyzed by Newman-Kewels analysis and a probability level of p<0.05 was accepted as significant. […]

Row | SMILES | IC50 [1] [nM] | IC50 [2] [nM] | IC50 [3] [nM] | MED [4] [nmol]
1 | CCCCCN(CCCCC)C(=O)[C@@H](Cc1c[nH]c2ccccc12)NC(=O)c1cnc2ccccc2c1 [Example 21, N-(3′-Quinolylcarbonyl)-R-Tryptophan-di-n-pentylamide] | 15000 | 14 | 42 | 0.3
2 | CCOC(=O)CN(Cc1ccccc1)C(=O)[C@@H](Cc1c[nH]c2ccccc12)NC(=O)c1cnc2ccccc2c1 [Example 29, Ethyl N-(3′-Quinolylcarbonyl)-R-Tryptophyl-(N-benzyl)Glycinate] | 9200 | 88 | < 10000 | –
3 | CCOC(=O)CN(Cc1ccccc1)C(=O)[C@@H](Cc1c[nH]c2ccccc12)NC(=O)c1cc2ccccc2[nH]1 [Example 28, Ethyl N-(2′-Indolylcarbonyl)-R-Tryptophyl-(N-benzyl)Glycinate] | 10000 | 280 | < 10000 | –
4 | CN(Cc1ccccc1)C(=O)C(Cc1c[nH]c2ccccc12)NC(=O)c1cnc2ccccc2c1 (stereo not shown) [Example 33, N-(3′-Quinolylcarbonyl)-Tryptophan-(N-methyl,N-benzyl)amide] | 10000 | 530 | < 30000 | –

More lines, main results first:

Row | IC50 [1] [nM] | IC50 [2] [nM] | IC50 [3] [nM] | SMILES | MED [4] [nmol]
5 | > 10000 | 300 | < 100000 | COC(=O)[C@H](NC(=O)C(Cc1c[nH]c2ccccc12)NC(=O)c1cnc2ccccc2c1)c1ccccc1 (stereo partly shown) [Example 31, Methyl N-(3′-Quinolylcarbonyl)-Tryptophyl-R-Phenylglycinate] | –
6 | > 10000 | 110 | < 10000 | C[C@@H](NC(=O)[C@@H](Cc1c[nH]c2ccccc12)NC(=O)c1cnc2ccccc2c1)c1ccccc1 [Example 39, N-(3′-Quinolylcarbonyl)-R-Tryptophan-(1′,R-phenylethyl)amide] | –
7 | 10000 | 150 | < 10000 | COC(=O)[C@@H](NC(=O)[C@@H](Cc1c[nH]c2ccccc12)NC(=O)c1cc2ccccc2[nH]1)c1ccccc1 [Example 25, Methyl N-(2,indolylcarbonyl)-R-Tryptophyl-S-Phenylglycinate] | –
8 | > 10000 | 120 | < 30000 | COC(=O)[C@@H](NC(=O)C(Cc1c[nH]c2ccccc12)NC(=O)c1cnc2ccccc2c1)c1ccccc1 (stereo partly shown) [Example 32, Methyl N-(3′-Quinolylcarbonyl)-Tryptophyl-S-Phenylglycinate] | –
9 | > 10000 | 380 | < 10000 | C[C@H](NC(=O)[C@@H](Cc1c[nH]c2ccccc12)NC(=O)c1cnc2ccccc2c1)c1ccccc1 [Example 36, N-(3′-Quinolylcarbonyl)-R-Tryptophan-(1′,S-phenylethyl)amide] | –
